Assay results published in patent US10174050B2, “Spiroisoxazoline compounds having an activity potentiating the activity of an antibiotic” (priority 2012, dated 2019).
In brackets after ≈: the same amount, converted by molar mass.

System: not listed separately
Experiment: physchem
Format: physicochemical
Details: pH 7.4, aqueous buffer, kinetic from dmso stock
Description: 40 μL of a 10 mM solution in DMSO of the sample are added to 1.96 mL MeOH or PBS at pH 7.4. The samples are then agitated during 24 h at RT, centrifuged during 5 min and then filtrated on filters of 0.45 μm pore size. 20 μL of each solution are then added to 180 μL MeOH and then analyzed by LC-MS. The solubility is determined as ratio of the surfaces of the mass signals PBS/MeOH.

O=C(CCC(F)(F)F)N1CCC2(CC1)CC(c1ccccc1)=NO2 [Compound 10] showed a solubility at 24 h of 150 µM (≈ 51.1 µg/mL).

System: macrophages infected by M. tuberculosis
Experiment: Potentiation of ethionamide cell test (HCS)
Format: cell-based
Details: ligand concentration necessary to potentiate ten times the activity of ethionamide (inhibit 50% of bacterial growth), constant ethionamide 0.1 μg/mL (1/10th of its CMI99)

Going from O=C(CCC(F)(F)F)N1CCC2(CC1)CC(c1nccs1)=NO2 [Compound 7] to O=C(CCCC(F)(F)F)N1CCC2(CC1)CC(c1nccs1)=NO2 [Compound 9], the EC50 rises from 40 nM to 70 nM (1.8-fold).

O=C(CCC(F)(F)F)N1CCC2(CC1)CC(C1CCCC1)=NO2 [Compound 28] and O=C(CCC(F)(F)F)N1CCC2(CC1)CC(C1CCCCC1)=NO2 [Compound 27] are the same in EC50: 80 nM for the first, 80 nM for the second.

First: O=C(CCC(F)(F)F)N1CCC2(CC(c3ccccc3)=NO2)C1 (stereo not shown) [Compound 4]
Second: O=C(CCC(F)(F)F)N1CC2(CC(c3ccccc3)=NO2)C1 [Compound 5]
The EC50 of the first is 4.8-fold higher: 530 nM for the first, 110 nM for the second.

Compared with O=C(CCC(F)(F)F)N1CCC2(CC1)CC(c1ccc(Cl)cc1)=NO2 [Compound 21], Cc1ccc(C2=NOC3(CCN(C(=O)CCC(F)(F)F)CC3)C2)cc1 [Compound 11] is 2.3-fold lower in EC50: 5800 nM for the first, 2500 nM for the second. The second is the more potent here.

Compared with O=C(CCC(F)(F)F)N1CCC2(CC1)CC(c1ccccn1)=NO2 [Compound 31], O=C(CCC(F)(F)F)N1CCC2(CC1)CC(c1ccccc1)=NO2 [Compound 10] is 7.5-fold lower in EC50: 150 nM for the first, 20 nM for the second.

Compared with CC(C)CCC(=O)N1CCC2(CC1)CC(c1cccs1)=NO2 [Compound 8], O=C(CCC(F)(F)F)N1CCC2(CC1)CC(c1cccs1)=NO2 [Compound 6] is 4.3-fold lower in EC50: 130 nM for the first, 30 nM for the second.

COc1cccc(C2=NOC3(CCN(C(=O)CCC(F)(F)F)CC3)C2)c1 [Compound 15] and O=C(CCC(F)(F)F)N1CCC2(CC1)CC(c1cccc(C(F)(F)F)c1)=NO2 [Compound 23] are within 1.5-fold of each other in EC50: 290 nM for the first, 400 nM for the second.

O=C(CCCC(F)(F)F)N1CCC2(CC1)CC(c1ccccc1)=NO2 [Compound 51] and O=C(CCCC(F)(F)F)N1CCC2(CC1)CC(c1ccccc1Cl)=NO2 [Compound 50] are within 1.5-fold of each other in EC50: 1000 nM for the first, 770 nM for the second.

Going from CC(C)CCC(=O)N1CCC2(CC1)CC(c1ccccn1)=NO2 [Compound 45] to CC(C)CCC(=O)N1CCC2(CC1)CC(c1ccccc1)=NO2 [Compound 32], the EC50 rises from 1300 nM to 5000 nM (3.8-fold). The first is the more potent here.

First: O=C(CCc1ccccc1)N1CCC2(CC1)CC(c1ccccc1)=NO2 [Compound 59]
Second: O=C(CCC(F)(F)F)N1CCC2(CC1)CC(Cc1ccccc1)=NO2 [Compound 29]
The EC50 of the first is 50-fold higher: 1000 nM for the first, 20 nM for the second.

Going from O=C(CCC(F)(F)F)N1CCC2(CC1)CC(c1ccc(F)cc1)=NO2 [Compound 22] to O=C(CCC(F)(F)F)N1CCC2(CC1)CC(c1ccccc1Cl)=NO2 [Compound 20], the EC50 falls from 500 nM to 30 nM (17-fold). The second is the more potent here.

First: COc1ccccc1C1=NOC2(CCN(C(=O)CCC(C)C)CC2)C1 [Compound 49]
Second: CC(C)CCC(=O)N1CCC2(CC1)CC(c1ccccc1Cl)=NO2 [Compound 46]
The EC50 of the first is 2.1-fold lower: 630 nM for the first, 1300 nM for the second.

Compared with O=C(CCC(F)(F)F)N1CCC2(CC1)CC(c1ccc3c(c1)OCO3)=NO2 [Compound 18], O=C(CCC(F)(F)F)N1CCC2(CC1)CC(c1ccco1)=NO2 [Compound 30] is 26-fold lower in EC50: 1300 nM for the first, 50 nM for the second. The second is the more potent here.

Compound COc1ccccc1C1=NOC2(CCN(C(=O)CCC(F)(F)F)CC2)C1 [Compound 14] has an EC50 of 20 nM.
